Measured values published in patent publication US20250032411A1, “A SELF-EMULSIFYING DRUG DELIVERY SYSTEM (SEDDS) OF PUNICIC ACID COMBINED WITH NEUROPROTECTIVE NATURAL PRODUCTS TO DELAY ONSET, PREVENT, OR REVERSE NEURODEGENERATIVE DISEASE” (TAHIRO INC., priority 2021, published 2025).

How the values were obtained:
old mice = conditions: chronic low dose, 3 mg per kg bodyweight per day; cited from earlier work
alfa-synuclein = alfa-synuclein (Homo sapiens, UniProt P37840); conditions: in vitro; cited from earlier work
[1] = system: Drosophila model of Parkinson's Disease; conditions: fly feeding, 75 mM in medium; cited from earlier work
[2] = system: mThyl-human alpha-synuclein transgenic mouse model; conditions: 1 g/kg/day interperitoneally; cited from earlier work
[3] = system: Parkinson's disease patients; conditions: 18 g per day oral, cited from earlier work
C57BL6 mice = assay: Y-maze Test of MK-801 induced cognitive decline; type: in vivo; conditions: N=12 per group, random = 33%
Experimental: The effect of pomegranate-CBD based formulation with a 12:1 pomegranate to CBD ratio on cognitive decline was further evaluated in C57BL6 mice. The cognitive decline of the mice was achieved using MK-801 and the cognitive ability of the mice were tested using the Y-maze Test. The experiment included three groups of mice, neutral control (N=12), MK-801 (N=12), MK-801 Pomegranate-CBD treated (N=12).

## CCCCCc1cc(O)c2c(c1)OC(C)(C)[C@@H]1CCC(C)=C[C@@H]21 [THC, Δ9-tetrahydrocannabinol]
Old mice
  cognitive function: restores cognitive function in old mice

## OC[C@@H](O)[C@@H](O)[C@H](O)[C@H](O)CO [Mannitol]
alfa-synuclein
  aggregation process of alfa-synuclein: interfere with the aggregation process of alfa-synuclein
[1]
  alpha-synuclein aggregates in the brains: reduced the amount of alpha-synuclein aggregates
  behavioral defects: dramatically corrected behavioral defects
[2]
  alpha-synuclein accumulation in brain regions: a decrease in alpha-synuclein accumulation was detected in several brain regions
[3]; 36 weeks
  patients who tolerate the maximal dose: only two thirds of patients tolerate this maximal dose
[3]
  safety of long-term use: safe

## C[C@]12N[C@H](Cc3ccccc31)c1ccccc12 [MK-801]
C57BL6 mice
  % of entries in the novel arm of the Y-maze: 31.8%
